# Peptide text beside a SMILES is read from it.
# Test system: M. furfur ATCC 14521
# Test: not given
# Settings: 5 μM peptide, after 15 min of treatment, 30° C., 10^6 cells/ml, CFU vs no-peptide control
# Experimental: FIG. 1. Killing kinetics of PF-S028 L and D versions against M. furfur were determined using standard time-kill methods previously detailed (Eckert et al. (2006) Antimicrob Agents Chemother., 50: 1480-1488). Briefly, a log phase culture of M. furfur ATCC 14521 was diluted to 10^6 cells/ml in ATCC medium 1072. To the reaction tubes 5 μM of either PF-S028 L or PF-S028 D were added. A reaction tube to which 4 μl of 50% methanol served as the negative control. Reaction tubes were stored at 30° C. and at indicated intervals an aliquot was removed from the reaction tube and placed in a recovery tube where peptide was removed by dilution. An aliquot from the recovery tube was plated on ATCC medium 1072 agar plates and incubated at 30° C. until visible colonies formed. Colony forming units were calculated for the negative control (no peptide), PF-S028 L, and PF-S028 D treated cultures.
# In some cases killing kinetic experiments were then conducted. Killing kinetics of PF-S028 L and D versions against M. furfur were determined as described in Eckert et al. (2006) Antimicrob Agents Chemother., 50: 1480-1488. Briefly, a log phase culture of M. furfur ATCC 14521 was diluted to 10^6 cells/ml in ATCC medium 1072. To the reaction tubes 5 μM of either PF-S028 L or PF-S028 D were added. […] Colony forming units were calculated for the negative control (no peptide), PF-S028 L, and PF-S028 D treated cultures.
row,Compound,M. furfur killed
1,CC[C@@H](C)[C@@H](NC(=O)[C@H](NC(=O)[C@@H](CO)NC(=O)CN)C(C)C)C(=O)N[C@H](CCCCN)C(=O)N[C@H](CCCCN)C(=O)N[C@H](CCCNC(=N)N)C(=O)N[C@H](CCCNC(=N)N)C(=O)N[C@H](CCCCN)C(=O)N[C@H](CCCNC(=N)N)C(=O)N[C@H](CCSC)C(=O)N[C@H](CO)C(=O)N[C@H](CCCCN)C(=O)N[C@H](CCCCN)C(=O)N[C@H](CCCCN)C(=O)N[C@H](Cc1c[nH]cn1)C(=O)N[C@H](CCCNC(=N)N)C(=O)N[C@H](CCCCN)C(=O)N[C@H](CCSC)C(=O)N[C@H](CC(C)C)C(=O)N[C@H](CCCNC(=N)N)C(=O)N[C@H](CCCNC(=N)N)C(=O)N[C@@H](C(=O)N[C@H](CCCNC(=N)N)C(=O)N[C@@H](C(=O)N[C@H](CCC(N)=O)C(=O)N[C@H](CCCNC(=N)N)C(=O)N[C@H](CCCNC(=N)N)C(=O)N[C@H](CCCCN)C(=O)N[C@H](CC(C)C)C(=O)NCC(=O)N[C@H](CCCCN)C(=O)O)C(C)C)[C@H](C)O [PF-S028 D],over 99%
2,CC[C@H](C)[C@H](NC(=O)[C@@H](NC(=O)[C@H](CO)NC(=O)CN)C(C)C)C(=O)N[C@@H](CCCCN)C(=O)N[C@@H](CCCCN)C(=O)N[C@@H](CCCNC(=N)N)C(=O)N[C@@H](CCCNC(=N)N)C(=O)N[C@@H](CCCCN)C(=O)N[C@@H](CCCNC(=N)N)C(=O)N[C@@H](CCSC)C(=O)N[C@@H](CO)C(=O)N[C@@H](CCCCN)C(=O)N[C@@H](CCCCN)C(=O)N[C@@H](CCCCN)C(=O)N[C@@H](Cc1c[nH]cn1)C(=O)N[C@@H](CCCNC(=N)N)C(=O)N[C@@H](CCCCN)C(=O)N[C@@H](CCSC)C(=O)N[C@@H](CC(C)C)C(=O)N[C@@H](CCCNC(=N)N)C(=O)N[C@@H](CCCNC(=N)N)C(=O)N[C@H](C(=O)N[C@@H](CCCNC(=N)N)C(=O)N[C@H](C(=O)N[C@@H](CCC(N)=O)C(=O)N[C@@H](CCCNC(=N)N)C(=O)N[C@@H](CCCNC(=N)N)C(=O)N[C@@H](CCCCN)C(=O)N[C@@H](CC(C)C)C(=O)NCC(=O)N[C@@H](CCCCN)C(=O)O)C(C)C)[C@@H](C)O [PF-S028 L],39%

# Test system: T. rubrum
# Test: not given
# Assay type: cell-based, Trichophyton rubrum
# Settings: not given
# Experimental: (§1) In certain embodiments the MIC assays are performed as described herein in the Examples. For each organism, the media and growth conditions utilized is detailed in Table 8.
# (§2) In certain embodiments the MIC assays are performed as follows: For each organism, the media and growth conditions utilized is detailed in Table 8.
row,Compound,MIC
1,CC(C)[C@H](NC(=O)[C@H](CCCCN)NC(=O)[C@H](Cc1c[nH]c2ccccc12)NC(=O)CNC(=O)[C@@H](NC(=O)[C@H](CC(=O)O)NC(=O)[C@H](CO)NC(=O)[C@H](Cc1c[nH]cn1)NC(=O)CNC(=O)[C@@H]1CCCN1C(=O)[C@@H](NC(=O)[C@H](CCCNC(=N)N)NC(=O)[C@H](CO)NC(=O)[C@@H](N)Cc1c[nH]c2ccccc12)C(C)C)[C@@H](C)O)C(=O)N[C@@H](Cc1c[nH]c2ccccc12)C(=O)N[C@@H](Cc1c[nH]cn1)C(=O)N[C@@H](CCCNC(=N)N)C(=O)N[C@@H](Cc1c[nH]c2ccccc12)C(=O)O [PF-547] (H-WSRVPGHSDTGWKVWHRW-OH; N-terminus and C-terminus assumed),25 µM

# Test system: Candida albicans
# Test: Peptide binding to Candida albicans
# Settings: tested at 3.13, 6.25, 12.5 and 25.0 μM in 1× PBS or 20 mM HEPES, 150 mM NaCl, 1 mM MgCl2, 0.1% CTAB
# Experimental: The peptides in Table 6 were tested for binding efficiency at 3.13, 6.25, 12.5 and 25.0 μM concentrations in 1× phosphate-buffered saline or 20 mM HEPES (4-(2-hydroxyethyl)-1-piperazineethanesulfonic acid), 150 mM sodium chloride, 1 mM magnesium chloride and 0.1% CTAB.
row,Compound,Target(s): form of Candida albicans bound
1,CC[C@H](C)[C@H](NC(=O)[C@H](C)NC(=O)[C@@H]1CCCN1C(=O)[C@H](Cc1ccccc1)NC(=O)[C@@H]1CCCN1C(=O)[C@H](CC(C)C)NC(=O)[C@@H](N)C(C)C)C(=O)N1CCC[C@H]1C(=O)N[C@@H](CC(C)C)C(=O)N[C@@H](CO)C(=O)N[C@@H](CCCNC(=N)N)C(=O)N[C@@H](CCCNC(=N)N)C(=O)N[C@@H](CCCNC(=N)N)C(=O)N[C@@H](C)C(=O)N[C@@H](CS)C(=O)N[C@H](C(=O)N[C@@H](C)C(=O)N[C@@H](C)C(=O)N1CCC[C@H]1C(=O)N[C@@H](CCCNC(=N)N)C(=O)N1CCC[C@H]1C(=O)N[C@@H](CCCNC(=N)N)C(=O)N[C@@H](CO)C(=O)N[C@@H](CCCNC(=N)N)C(=O)N[C@@H](CCC(N)=O)C(=O)N[C@@H](CCCNC(=N)N)C(=O)N[C@@H](C)C(=O)N[C@@H](CO)C(=O)O)C(C)C [PF-168] (H-VLPFPAIPLSRRRACVAAPRPRSRQRAS-OH; N-terminus and C-terminus assumed),yeast cells
2,CC[C@H](C)[C@H](NC(=O)[C@H](CC(N)=O)NC(=O)[C@@H](NC(=O)[C@H](Cc1ccccc1)NC(=O)[C@H](CCC(=O)O)NC(=O)CNC(=O)[C@H](CCC(N)=O)NC(=O)[C@H](Cc1ccccc1)NC(=O)[C@@H](N)CCCCN)[C@@H](C)O)C(=O)NCC(=O)N[C@@H](CCC(N)=O)C(=O)N[C@@H](CO)C(=O)N[C@@H](Cc1ccc(O)cc1)C(=O)N[C@H](C(=O)N[C@H](C(=O)N[C@@H](CO)C(=O)N[C@@H](C)C(=O)N[C@@H](CO)C(=O)N[C@@H](Cc1c[nH]cn1)C(=O)N[C@@H](CCSC)C(=O)N[C@@H](CO)C(=O)N[C@H](C(=O)N[C@@H](CO)C(=O)N[C@@H](CC(C)C)C(=O)N[C@@H](CC(N)=O)C(=O)N[C@H](C(=O)NCC(=O)N[C@@H](CCCCN)C(=O)O)[C@@H](C)O)[C@@H](C)O)C(C)C)[C@@H](C)CC [PF-583] (H-KFQGEFTNIGQSYIVSASHMSTSLNTGK-OH; N-terminus and C-terminus assumed),hyphae
3,AIEGVIKKGACFKLLRHEMF (Antimicrobial peptide and/or targeting peptide) [PF-167],yeast cells
4,DLRKAK (Antimicrobial peptide and/or targeting peptide) [PF-024],hyphae
5,EILNNNQVIKELTMKYKTQFESNLGGWTARARR (Antimicrobial peptide and/or targeting peptide) [PF-580],hyphae
6,EVYSSPTNNVAITVQNN (Antimicrobial peptide and/or targeting peptide) [PF-178],hyphae
7,GGTKEIVYQRG (Antimicrobial peptide and/or targeting peptide) [1T-68],yeast cells
8,GVGIGFIMMGVVGYAVKLVHIPIRYLIV (Antimicrobial peptide and/or targeting peptide) [PF-770],hyphae
9,HARAAVGVAELPRGAAVEVELIAAVRP (Antimicrobial peptide and/or targeting peptide) [1T-65],hyphae
10,HSSHL (Antimicrobial peptide and/or targeting peptide) [PF-060],hyphae
11,KLRSASKKSLQEKSCGIMPEKPAG (Antimicrobial peptide and/or targeting peptide) [PF-206],hyphae
12,LVRLA (Antimicrobial peptide and/or targeting peptide) [PF-636],hyphae
13,MIHLTKQNTMEALHFIKQFYDMFFILNFNV (Antimicrobial peptide and/or targeting peptide) [PF-040],hyphae
14,MPKARPVNHNKKKSKITIKSNFTLFYMFNP (Antimicrobial peptide and/or targeting peptide) [PF-634],hyphae
15,NILFGIIGFVVAMTAAVIVTAISIAK (Antimicrobial peptide and/or targeting peptide) [PF-543],hyphae
16,NRQAQGERAHGEQQG (Antimicrobial peptide and/or targeting peptide) [1T-70],yeast cells
17,RFFNFEIKKSTKVDYVFAHVDLSDV (Antimicrobial peptide and/or targeting peptide) [PF-051],hyphae
18,RLARGRPTNLCGRRG (Antimicrobial peptide and/or targeting peptide) [PF-170],yeast cells
19,RLTSNQFLTRITPFVFAQH (Antimicrobial peptide and/or targeting peptide) [PF-176],yeast cells
20,SKFELVNYASGCSCGADCKCASETECKCASKK (Antimicrobial peptide and/or targeting peptide) [PF-761],hyphae
21,VVRRFQGM (Antimicrobial peptide and/or targeting peptide) [PF-141],hyphae
22,VYRHLRFIDGKLVEIRLERK (Antimicrobial peptide and/or targeting peptide) [1T-36],hyphae

# Test system: B. subtilis
# Test: not given
# Assay type: cell-based, Bacillus subtilis
# Settings: not given
# Experimental: as §1, §2
row,Compound,MIC
1,CC(C)[C@H](NC(=O)[C@H](CCCCN)NC(=O)[C@H](Cc1c[nH]c2ccccc12)NC(=O)CNC(=O)[C@@H](NC(=O)[C@H](CC(=O)O)NC(=O)[C@H](CO)NC(=O)[C@H](Cc1c[nH]cn1)NC(=O)CNC(=O)[C@@H]1CCCN1C(=O)[C@@H](NC(=O)[C@H](CCCNC(=N)N)NC(=O)[C@H](CO)NC(=O)[C@@H](N)Cc1c[nH]c2ccccc12)C(C)C)[C@@H](C)O)C(=O)N[C@@H](Cc1c[nH]c2ccccc12)C(=O)N[C@@H](Cc1c[nH]cn1)C(=O)N[C@@H](CCCNC(=N)N)C(=O)N[C@@H](Cc1c[nH]c2ccccc12)C(=O)O [PF-547] (H-WSRVPGHSDTGWKVWHRW-OH; N-terminus and C-terminus assumed),25 µM
